Assay results as given in patent US11767310B2, “Nicotinamide RIPK1 inhibitors” (AbbVie Inc., priority 2021, dated 2023).
Like-named read-outs stand apart in the source and are kept apart here.

Experiments:
Test in all cases: Kinase binding screen
Details in all cases: read-out: Percent Control at 100 nM Compound Concentration
HIPK4 = HIPK4 (Homo sapiens (Human), UniProt Q8NE63)
PKN2 = PKN2 (Homo sapiens (Human), UniProt Q16513)
GRK4 = GRK4 (Homo sapiens (Human), UniProt P32298)
VEGFR2 = VEGFR2 (Homo sapiens (Human), UniProt P35968)
PRKCH = PRKCH (Homo sapiens (Human), UniProt P24723)
OSR1 = OSR1 (Homo sapiens (Human), UniProt O95747)
EGFR(L861Q) = EGFR(L861Q) (Homo sapiens (Human), UniProt P00533, L861Q)
PRKX = PRKX (Homo sapiens (Human), UniProt P51817)
FGFR2 = FGFR2 (Homo sapiens (Human), UniProt P21802)
LRRK2 = LRRK2 (Homo sapiens (Human), UniProt Q5S007)
Sequence of LRRK2 (Q5S007 whole entry): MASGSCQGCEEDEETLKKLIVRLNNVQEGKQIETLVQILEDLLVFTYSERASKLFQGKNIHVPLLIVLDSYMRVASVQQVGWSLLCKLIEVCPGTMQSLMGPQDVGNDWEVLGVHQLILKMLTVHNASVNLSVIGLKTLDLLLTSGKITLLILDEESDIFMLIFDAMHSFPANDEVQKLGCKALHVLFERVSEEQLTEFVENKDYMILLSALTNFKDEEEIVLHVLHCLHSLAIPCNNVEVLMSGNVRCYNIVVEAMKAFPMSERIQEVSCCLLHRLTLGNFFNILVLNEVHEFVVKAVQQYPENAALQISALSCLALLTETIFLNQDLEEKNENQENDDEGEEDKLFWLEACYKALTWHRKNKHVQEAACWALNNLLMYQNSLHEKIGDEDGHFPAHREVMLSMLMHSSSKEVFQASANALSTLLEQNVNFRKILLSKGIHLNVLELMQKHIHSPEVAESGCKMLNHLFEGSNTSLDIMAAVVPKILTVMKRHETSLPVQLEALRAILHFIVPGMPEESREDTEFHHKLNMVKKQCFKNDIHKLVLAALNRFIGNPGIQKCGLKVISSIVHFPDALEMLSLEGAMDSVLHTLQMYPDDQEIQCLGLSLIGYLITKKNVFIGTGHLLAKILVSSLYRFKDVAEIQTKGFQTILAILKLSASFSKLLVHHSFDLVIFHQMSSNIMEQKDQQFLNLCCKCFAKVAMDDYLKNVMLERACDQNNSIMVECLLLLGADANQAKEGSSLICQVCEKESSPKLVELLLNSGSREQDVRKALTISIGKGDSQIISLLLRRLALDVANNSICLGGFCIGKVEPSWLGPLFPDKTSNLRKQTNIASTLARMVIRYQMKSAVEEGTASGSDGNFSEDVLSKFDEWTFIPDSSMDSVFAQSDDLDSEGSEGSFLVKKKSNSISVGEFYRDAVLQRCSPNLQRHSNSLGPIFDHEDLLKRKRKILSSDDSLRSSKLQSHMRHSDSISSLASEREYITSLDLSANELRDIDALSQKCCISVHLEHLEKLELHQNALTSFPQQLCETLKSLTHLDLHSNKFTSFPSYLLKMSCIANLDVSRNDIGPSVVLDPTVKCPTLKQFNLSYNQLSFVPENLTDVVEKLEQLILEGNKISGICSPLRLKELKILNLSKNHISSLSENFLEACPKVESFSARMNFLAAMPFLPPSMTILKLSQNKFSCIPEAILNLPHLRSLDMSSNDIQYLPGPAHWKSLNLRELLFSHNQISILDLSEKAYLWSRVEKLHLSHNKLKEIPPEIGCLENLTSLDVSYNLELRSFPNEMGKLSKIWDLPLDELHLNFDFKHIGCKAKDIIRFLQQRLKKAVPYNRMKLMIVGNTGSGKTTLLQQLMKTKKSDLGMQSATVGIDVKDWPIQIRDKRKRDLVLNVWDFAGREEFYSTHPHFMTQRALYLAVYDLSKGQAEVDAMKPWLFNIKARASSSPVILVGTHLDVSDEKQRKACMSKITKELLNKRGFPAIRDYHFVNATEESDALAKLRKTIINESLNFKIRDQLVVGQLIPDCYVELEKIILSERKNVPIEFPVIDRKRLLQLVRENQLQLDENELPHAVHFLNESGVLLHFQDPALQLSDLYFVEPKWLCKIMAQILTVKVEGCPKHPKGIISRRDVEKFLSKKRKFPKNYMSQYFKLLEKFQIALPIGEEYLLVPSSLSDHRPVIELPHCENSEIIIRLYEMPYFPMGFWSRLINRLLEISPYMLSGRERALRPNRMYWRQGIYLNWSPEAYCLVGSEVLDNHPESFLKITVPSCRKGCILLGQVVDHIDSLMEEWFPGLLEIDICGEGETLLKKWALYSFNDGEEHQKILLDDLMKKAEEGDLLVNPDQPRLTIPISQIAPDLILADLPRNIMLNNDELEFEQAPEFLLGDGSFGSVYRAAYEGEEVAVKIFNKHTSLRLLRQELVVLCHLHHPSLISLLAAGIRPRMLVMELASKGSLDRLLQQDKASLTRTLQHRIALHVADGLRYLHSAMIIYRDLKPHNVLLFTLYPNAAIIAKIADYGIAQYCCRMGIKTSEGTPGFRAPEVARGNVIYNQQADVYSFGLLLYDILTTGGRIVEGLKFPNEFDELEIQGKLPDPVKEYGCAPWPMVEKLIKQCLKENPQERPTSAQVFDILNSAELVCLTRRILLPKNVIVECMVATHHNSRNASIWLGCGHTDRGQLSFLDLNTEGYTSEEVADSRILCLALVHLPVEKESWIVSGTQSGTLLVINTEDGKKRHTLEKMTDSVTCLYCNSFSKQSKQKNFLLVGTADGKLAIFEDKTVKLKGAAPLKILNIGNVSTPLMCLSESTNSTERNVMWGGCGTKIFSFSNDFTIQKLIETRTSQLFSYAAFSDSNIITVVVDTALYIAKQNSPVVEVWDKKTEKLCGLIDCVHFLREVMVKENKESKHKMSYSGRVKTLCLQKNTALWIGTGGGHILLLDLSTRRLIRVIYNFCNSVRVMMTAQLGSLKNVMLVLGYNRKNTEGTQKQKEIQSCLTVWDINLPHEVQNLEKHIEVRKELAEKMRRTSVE

LIMK1 = LIMK1 (Homo sapiens (Human), UniProt P53667)
SLK = SLK (Homo sapiens (Human), UniProt Q9H2G2)
EGFR(G719C) = EGFR(G719C) (Homo sapiens (Human), UniProt P00533, G719C)
Sequence of EGFR(G719C) (P00533 25-1210 G719C): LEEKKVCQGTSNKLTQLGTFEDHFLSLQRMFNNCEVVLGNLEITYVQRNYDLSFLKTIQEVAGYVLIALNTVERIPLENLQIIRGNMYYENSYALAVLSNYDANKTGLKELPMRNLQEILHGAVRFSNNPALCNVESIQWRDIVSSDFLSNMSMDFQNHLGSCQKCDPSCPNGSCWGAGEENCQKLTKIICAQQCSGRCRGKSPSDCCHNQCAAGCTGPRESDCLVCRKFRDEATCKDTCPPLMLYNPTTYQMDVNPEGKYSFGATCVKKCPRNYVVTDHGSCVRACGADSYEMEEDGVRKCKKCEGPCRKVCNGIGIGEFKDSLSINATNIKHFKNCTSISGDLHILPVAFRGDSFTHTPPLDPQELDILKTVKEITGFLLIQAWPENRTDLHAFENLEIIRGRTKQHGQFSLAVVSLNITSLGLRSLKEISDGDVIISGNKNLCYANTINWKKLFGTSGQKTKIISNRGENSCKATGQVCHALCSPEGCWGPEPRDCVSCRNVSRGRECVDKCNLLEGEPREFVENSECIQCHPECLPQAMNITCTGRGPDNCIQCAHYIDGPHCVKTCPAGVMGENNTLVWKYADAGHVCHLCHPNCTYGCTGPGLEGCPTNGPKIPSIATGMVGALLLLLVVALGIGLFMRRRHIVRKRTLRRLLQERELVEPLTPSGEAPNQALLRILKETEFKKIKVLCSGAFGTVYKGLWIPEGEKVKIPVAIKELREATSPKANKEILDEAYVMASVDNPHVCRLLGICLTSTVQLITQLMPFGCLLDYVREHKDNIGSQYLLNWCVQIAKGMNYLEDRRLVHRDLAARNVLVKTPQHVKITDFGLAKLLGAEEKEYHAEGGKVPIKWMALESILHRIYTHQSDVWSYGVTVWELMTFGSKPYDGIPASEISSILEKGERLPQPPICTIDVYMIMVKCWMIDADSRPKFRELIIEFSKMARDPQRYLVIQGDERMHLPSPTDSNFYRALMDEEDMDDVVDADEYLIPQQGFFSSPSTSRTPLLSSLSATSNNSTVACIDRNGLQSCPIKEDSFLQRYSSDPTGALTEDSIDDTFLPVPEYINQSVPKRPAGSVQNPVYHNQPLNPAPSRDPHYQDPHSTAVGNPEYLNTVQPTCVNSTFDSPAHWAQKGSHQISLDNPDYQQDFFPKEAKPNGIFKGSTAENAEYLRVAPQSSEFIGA

PDGFRA = PDGFRA (Homo sapiens (Human), UniProt P16234)
[1] = target: RSK1(Kin.Dom.2-C-terminal) (Homo sapiens (Human), UniProt Q15418)
Sequence of RSK1(Kin.Dom.2-C-terminal) (Q15418 418-675): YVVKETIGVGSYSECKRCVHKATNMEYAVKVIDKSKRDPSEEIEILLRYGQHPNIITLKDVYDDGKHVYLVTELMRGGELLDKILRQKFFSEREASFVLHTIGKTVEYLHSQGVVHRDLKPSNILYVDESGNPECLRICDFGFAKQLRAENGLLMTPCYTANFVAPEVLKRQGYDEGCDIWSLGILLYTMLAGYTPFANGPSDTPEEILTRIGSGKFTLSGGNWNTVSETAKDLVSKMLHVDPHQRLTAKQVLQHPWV

LKB1 = LKB1 (Homo sapiens (Human), UniProt Q15831)
Sequence of LKB1 (Q15831 whole entry): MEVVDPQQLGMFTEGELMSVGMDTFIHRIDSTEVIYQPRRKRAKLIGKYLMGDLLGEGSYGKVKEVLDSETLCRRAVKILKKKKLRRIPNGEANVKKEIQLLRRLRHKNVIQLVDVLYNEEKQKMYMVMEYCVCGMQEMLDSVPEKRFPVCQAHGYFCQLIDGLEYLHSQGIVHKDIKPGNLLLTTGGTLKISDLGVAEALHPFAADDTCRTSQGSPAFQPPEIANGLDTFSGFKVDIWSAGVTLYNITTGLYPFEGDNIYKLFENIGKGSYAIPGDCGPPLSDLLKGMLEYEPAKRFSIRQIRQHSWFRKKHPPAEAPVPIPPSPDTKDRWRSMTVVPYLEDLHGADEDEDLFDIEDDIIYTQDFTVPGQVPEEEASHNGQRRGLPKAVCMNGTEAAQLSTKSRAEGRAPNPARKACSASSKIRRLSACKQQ

ABL1-phosphorylated = ABL1-phosphorylated (Homo sapiens (Human), UniProt P00519)
MAP4K3 = MAP4K3 (Homo sapiens (Human), UniProt Q8IVH8)
AAK1 = AAK1 (Homo sapiens (Human), UniProt Q2M2I8)
[2] = target: EGFR(L747-S752del, P753S) (Homo sapiens (Human), UniProt P00533, DEL747-752/P753S)
CDK5 = CDK5 (Homo sapiens (Human), UniProt Q00535)
DCAMKL3 = DCAMKL3 (Homo sapiens (Human), UniProt Q9C098)
Sequence of DCAMKL3 (Q9C098 whole entry, looked up): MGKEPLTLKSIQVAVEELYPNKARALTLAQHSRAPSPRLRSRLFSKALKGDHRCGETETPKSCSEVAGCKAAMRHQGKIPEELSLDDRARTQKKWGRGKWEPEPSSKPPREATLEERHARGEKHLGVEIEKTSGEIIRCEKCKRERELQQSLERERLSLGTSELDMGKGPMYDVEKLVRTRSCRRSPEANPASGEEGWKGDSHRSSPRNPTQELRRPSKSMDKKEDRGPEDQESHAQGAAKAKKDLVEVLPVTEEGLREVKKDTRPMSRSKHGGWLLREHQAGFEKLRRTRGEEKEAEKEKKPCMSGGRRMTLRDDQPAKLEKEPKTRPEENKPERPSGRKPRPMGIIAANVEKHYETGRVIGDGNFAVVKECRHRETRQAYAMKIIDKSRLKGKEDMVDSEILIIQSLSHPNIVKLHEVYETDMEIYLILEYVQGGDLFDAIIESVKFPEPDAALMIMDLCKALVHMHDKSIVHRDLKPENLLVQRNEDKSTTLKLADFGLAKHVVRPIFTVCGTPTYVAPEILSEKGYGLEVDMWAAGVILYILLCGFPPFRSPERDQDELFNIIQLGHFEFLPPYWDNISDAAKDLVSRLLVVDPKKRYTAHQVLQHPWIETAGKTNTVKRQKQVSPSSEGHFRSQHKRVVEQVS

MYLK = MYLK (Homo sapiens (Human), UniProt Q15746)
JNK3 = JNK3 (Homo sapiens (Human), UniProt P53779)
MEK1 = MEK1 (Homo sapiens (Human), UniProt Q02750)
PCTK3 = PCTK3 (Homo sapiens (Human), UniProt Q07002)
PCTK2 = PCTK2 (Homo sapiens (Human), UniProt Q00537)
ACVR1 = ACVR1 (Homo sapiens (Human), UniProt Q04771)
TNNI3K = TNNI3K (Homo sapiens (Human), UniProt Q59H18)

## CN(C[C@@H](O)Cc1ccccc1)C(=O)c1cncc(C#Cc2cnn(C(F)F)c2)c1 [Example 2, (S)-5-((1-(difluoromethyl)-1H-pyrazol-4-yl)ethynyl)-N-(2-hydroxy-3-phenylpropyl)-N-methylnicotinamide]
HIPK4; HIPK4
  remaining activity at 0.1 µM: 100%
PKN2; PKN2
  remaining activity at 0.1 µM: 97%
GRK4; GRK4
  remaining activity at 0.1 µM: 100%
VEGFR2; VEGFR2
  remaining activity at 0.1 µM: 96%
PRKCH; PRKCH
  remaining activity at 0.1 µM: 100%
OSR1; OSR1
  remaining activity at 0.1 µM: 88%
EGFR(L861Q); EGFR(L861Q)
  remaining activity at 0.1 µM: 100%
PRKX; PRKX
  remaining activity at 0.1 µM: 100%
FGFR2; FGFR2
  remaining activity at 0.1 µM: 100%
LRRK2; LRRK2
  remaining activity at 0.1 µM: 100%
LIMK1; LIMK1
  remaining activity at 0.1 µM: 100%
SLK; SLK
  remaining activity at 0.1 µM: 99%
EGFR(G719C); EGFR(G719C)
  remaining activity at 0.1 µM: 100%
PDGFRA; PDGFRA
  remaining activity at 0.1 µM: 73%
[1]; RSK1(Kin.Dom.2-C-terminal)
  remaining activity at 0.1 µM: 100%
LKB1; LKB1
  remaining activity at 0.1 µM: 70%
ABL1-phosphorylated; ABL1-phosphorylated
  remaining activity at 0.1 µM: 79%
MAP4K3; MAP4K3
  remaining activity at 0.1 µM: 100%
AAK1; AAK1
  remaining activity at 0.1 µM: 96%
[2]; EGFR(L747-S752del, P753S)
  remaining activity at 0.1 µM: 100%
CDK5; CDK5
  remaining activity at 0.1 µM: 100%
DCAMKL3; DCAMKL3
  remaining activity at 0.1 µM: 100%
MYLK; MYLK
  remaining activity at 0.1 µM: 87%
JNK3; JNK3
  remaining activity at 0.1 µM: 83%
MEK1; MEK1
  remaining activity at 0.1 µM: 98%
PCTK3; PCTK3
  remaining activity at 0.1 µM: 100%
PCTK2; PCTK2
  remaining activity at 0.1 µM: 100%
ACVR1; ACVR1
  remaining activity at 0.1 µM: 100%
TNNI3K; TNNI3K
  remaining activity at 0.1 µM: 100%

## CN(C[C@H](Cc1ccccc1)OP(=O)(O)O)C(=O)c1cncc(C#Cc2cnn(C(F)F)c2)c1 [Example 19, (S)-1-(5-((1-(difluoromethyl)-1H-pyrazol-4-yl)ethynyl)-N-methylnicotinamido)-3-phenylpropan-2-yl dihydrogen phosphate]
HIPK4
  remaining activity at 0.1 µM: 100%
PKN2
  remaining activity at 0.1 µM: 100%
GRK4
  remaining activity at 0.1 µM: 100%
VEGFR2
  remaining activity at 0.1 µM: 97%
PRKCH
  remaining activity at 0.1 µM: 91%
OSR1
  remaining activity at 0.1 µM: 89%
EGFR(L861Q)
  remaining activity at 0.1 µM: 86%
PRKX
  remaining activity at 0.1 µM: 100%
FGFR2
  remaining activity at 0.1 µM: 100%
LRRK2
  remaining activity at 0.1 µM: 81%
LIMK1
  remaining activity at 0.1 µM: 100%
SLK
  remaining activity at 0.1 µM: 97%
EGFR(G719C)
  remaining activity at 0.1 µM: 77%
PDGFRA
  remaining activity at 0.1 µM: 85%
[1]
  remaining activity at 0.1 µM: 100%
LKB1
  remaining activity at 0.1 µM: 79%
ABL1-phosphorylated
  remaining activity at 0.1 µM: 78%
MAP4K3
  remaining activity at 0.1 µM: 100%
AAK1
  remaining activity at 0.1 µM: 100%
[2]
  remaining activity at 0.1 µM: 97%
CDK5
  remaining activity at 0.1 µM: 100%
DCAMKL3
  remaining activity at 0.1 µM: 100%
MYLK
  remaining activity at 0.1 µM: 86%
JNK3
  remaining activity at 0.1 µM: 86%
MEK1
  remaining activity at 0.1 µM: 99%
PCTK3
  remaining activity at 0.1 µM: 100%
PCTK2
  remaining activity at 0.1 µM: 100%
ACVR1
  remaining activity at 0.1 µM: 100%
TNNI3K
  remaining activity at 0.1 µM: 100%
